Structures can show the parent of a compound that is named as a salt.
Tested on: Mycobacterium tuberculosis H37Rv
Experiment: Mycobacterium tuberculosis H37Rv Inhibition Assay (resazurin, MIC)
Format: cell-based
Details: ATCC 25618 / H37Rv, 144 h, H37Rv strain (ATCC25618), Middlebrook 7H9+ADC, six days at 37° C., resazurin fluorescence after 48 hours, read-out: MIC value
O=c1ccc2ncc(=O)n3c2n1C[C@H]3CN1CCC(NCc2cc3c(cn2)SCO3)CC1 [Example 28, (2R)-2-({4-[([1,3]Oxathiolo[4,5-c]pyridin-6-ylmethyl)amino]-1-piperidinyl}methyl)-1,2-dihydro-3H,8H-2a,5,8a-triazaacenaphthylene-3,8-dione hydrochloride] showed an MIC of less than 2 µg/mL. Work on CC1(NCc2cc3c(cn2)OCS3)CCN(C[C@@H]2Cn3c(=O)ccc4ccc(=O)n2c43)CC1 [Example 24, (1R)-1-({4-Methyl-4-[([1,3]oxathiolo[5,4-c]pyridin-6-ylmethyl)amino]-1-piperidinyl}methyl)-1,2-dihydro-4H,9H-imidazo[1,2,3-ij]-1,8-naphthyridine-4,9-dione hydrochloride] yielded an MIC of less than 2 µg/mL. In the case of O=C1CSc2ccc(CNC3CCN(C[C@@H]4Cn5c(=O)ccc6ncc(=O)n4c65)CC3)nc2N1 [Example 29, (2R)-2-[(4-{[(3-Oxo-3,4-dihydro-2H-pyrido[3,2-b][1,4]thiazin-6-yl)methyl]amino}-1-piperidinyl)methyl]-1,2-dihydro-3H,8H-2a,5,8a-triazaacenaphthylene-3,8-dione hydrochloride], the MIC is reported as less than 2 µg/mL. Compound O=c1ccc2ccc(=O)n3c2n1CC3CN1CCC(NCc2cc3c(cn2)OCCS3)CC1 (racemic) [Example 63, 1-[(4-{[(2,3-Dihydro[1,4]oxathiino[2,3-c]pyridin-7-yl)methyl]amino}-1-piperidinyl)methyl]-1,2-dihydro-4H,9H-imidazo[1,2,3-ij]-1,8-naphthyridine-4,9-dione hydrochloride (2:1 mixture of R:S)] has an MIC of less than 2 µg/mL. O=C1COc2cc(Cl)c(CNC3CCN(C[C@@H]4Cn5c(=O)ccc6ccc(=O)n4c65)CC3)nc2N1 [Example 32, (1R)-1-[(4-{[(7-Chloro-3-oxo-3,4-dihydro-2H-pyrido[3,2-b][1,4]oxazin-6-yl)methyl]amino}-1-piperidinyl)methyl]-1,2-dihydro-4H,9H-imidazo[1,2,3-ij]-1,8-naphthyridine-4,9-dione dihydrochloride] gave an MIC of less than 2 µg/mL.

Same assay, conditions: ATCC 25618 / H37Rv, 144 h, read-out: MIC value, H37Rv strain (ATCC25618), Middlebrook 7H9+ADC, six days at 37° C., resazurin fluorescence after 48 hours
With O=c1ccc2ncc(=O)n3c2n1C[C@H]3CN1CCC(NCc2cc3c(cc2F)OCCO3)CC1 [Example 26, (2R)-2-[(4-{[(7-Fluoro-2,3-dihydro-1,4-benzodioxin-6-yl)methyl]amino}-1-piperidinyl)methyl]-1,2-dihydro-3H,8H-2a,5,8a-triazaacenaphthylene-3,8-dione hydrochloride] the MIC was no more than 1 µg/mL. O=c1ccc2ncc(=O)n3c2n1C[C@H]3CN1CCC(NCc2cc3c(cn2)OCCS3)CC1 [Example 19A, (2R)-2-({4-[(2,3-Dihydro[1,4]oxathiino[2,3-c]pyridin-7-ylmethyl)amino]-1-piperidinyl}methyl)-1,2-dihydro-3H,8H-2a,5,8a-triazaacenaphthylene-3,8-dione hydrochloride] showed an MIC of less than 2 µg/mL. For N#Cc1cc(CNC2CCN(C[C@@H]3Cn4c(=O)ccc5ncc(=O)n3c54)CC2)cc2c1OCCO2 [Example 42, 7-{[(1-{[(2R)-3,8-Dioxo-1,2-dihydro-3H,8H-2a,5,8a-triazaacenaphthylen-2-yl]methyl}-4-piperidinyl)amino]methyl}-2,3-dihydro-1,4-benzodioxin-5-carbonitrile hydrochloride], the MIC was less than 2 µg/mL. Work on O=c1ccc2ncc(=O)n3c2n1C[C@H]3CN1CCC(NCc2ccc3nsnc3c2)CC1 [Example 25, (2R)-2-({4-[(2,1,3-Benzothiadiazol-5-ylmethyl)amino]-1-piperidinyl}methyl)-1,2-dihydro-3H,8H-2a,5,8a-triazaacenaphthylene-3,8-dione hydrochloride] yielded an MIC of no more than 1 µg/mL. Compound O=C1CSc2cnc(CNC3CCN(C[C@@H]4Cn5c(=O)ccc6ccc(=O)n4c65)CC3)nc2N1 [Example 34, (1R)-1-[(4-{[(7-Oxo-6,7-dihydro-1H-pyrimido[5,4-b][1,4]thiazin-2-yl)methyl]amino}-1-piperidinyl)methyl]-1,2-dihydro-4H,9H-imidazo[1,2,3-ij]-1,8-naphthyridine-4,9-dione dihydrochloride] has an MIC of less than 2 µg/mL.

Tested on: not listed separately
Experiment: Antimicrobial Activity Assay: whole-cell antimicrobial activity by broth microdilution (CLSI M7-A7), MIC
Format: cell-based, Gram-positive and Gram-negative organisms
Details: against a strain of at least one of the organisms listed; tested in at least one exemplified salt or free base form
Procedure: Whole-cell antimicrobial activity was determined by broth microdilution using the Clinical and Laboratory Standards Institute (CLSI) recommended procedure, Document M7-A7, “Methods for Dilution Susceptibility Tests for Bacteria that Grow Aerobically”. The compounds were tested in serial two-fold dilutions ranging from 0.016 to 16 mcg/ml.
The minimum inhibitory concentration (MIC) was determined as the lowest concentration of compound that inhibited visible growth. A mirror reader was used to assist in determining the MIC endpoint.
Compounds were evaluated against Gram-positive organisms, selected from Staphylococcus aureus, Streptococcus pneumoniae, Streptococcus pyogenes, Enterococcus faecalis and Enterococcus faecium.
In addition, compounds were evaluated against Gram-negative organisms selected from Haemophilus influenzae, Moraxella catarrhalis, Escherichia coli, Pseudomonas aeruginosa, Proteus mirabilis, Enterobacter cloacae, Enterobacter aerogenes, Klebsiella pneumoniae and Stenotrophomonas maltophilia.
In the case of O=c1ccc2ccc(=O)n3c2n1C[C@H]3CN1CCC(NCc2cc3c(cn2)COC3)CC1 [Example 9, (1R)-1-({4-[(1,3-Dihydrofuro[3,4-c]pyridin-6-ylmethyl)amino]-1-piperidinyl}methyl)-1,2-dihydro-4H,1H-imidazo[1,2,3-ij]-1,8-naphthyridine-4,9-dione hydrochloride], the MIC is reported as no more than 4 µg/mL.
